Measurements: patent US20080280877A1, “Azetidines” (Pfizer Inc, priority 2007, published 2008)
pKi: −log10 of the molar value.

target: T1, recombinant human EP-2 receptor (Homo sapiens, UniProt P43116); experiment: in vitro antagonist potency against recombinant human EP-2 receptor in CHO cells (cAMP, Protocol 1); type: cell-based; details: functional Ki by Cheng-Prusoff from IC50; CHO cells stimulated with PGE2 (5 nM); cAMP readout; read-out: EP2 Ki
T1 construct: cell line stably transfected with full length cDNA encoding human Prostaglandin E2 was established; expressed in transfected cells; host or cells: CHO (Chinese hamster ovary) cells, stably transfected
Excerpt: 1.0 Measurement of in vitro Antagonist Potency (IC50) of Compounds Against Recombinant Human Prostaglandin E2 Receptor in CHO Cells
The prostaglandin E2 (EP-2) receptor is Gs coupled and agonism of the receptor by PGE2 results in activation of intracellular adenylate cyclase enzymes that synthesise the second messenger signalling molecule, adenosine 3′,5′-cyclic monophosphate (cAMP). […] Decreases in cAMP levels following treatment of stimulated recombinant EP-2 cells with potential antagonist compounds were measured and potency (IC50) calculated as follows. A Chinese hamster ovary (CHO) cell line stably transfected with full length cDNA encoding human Prostaglandin E2 was established using standard molecular biology methods. Test compounds were dissolved in dimethyl sulphoxide (DMSO) at 4 mM. 11 point half log unit increment dilution series of test compound were prepared in DMSO then diluted 1 in 40 in a buffer comprised of phosphate buffered saline (PBS) and 0.05% pluronic F-127 surfactant. Freshly cultured cells at 80-90% confluence were harvested and re-suspended in 90% growth media/10% DMSO. The cells were frozen using a planar freezer and stored in frozen aliquots in cryovials in liquid nitrogen until the day of the experiment. A vial of cells was defrosted in a 37° C. water bath for 2 min, then transferred to 10 ml of Dulbecco's Modified Eagle's Medium (DMEM). The cells were then centrifuged for 5 min at 1000 g and the pellet re-suspended at 1,000,000 cells/ml in DMEM. 5,000 cells (5 ul) were added to 5 ul of the compound dilution series in a 384 well assay plate and pre-incubated for 30 min at 37° C. 5 ul of agonist (15 nM PGE2 in PBS to give 5 nM FAC) was added and plates further incubated for 90 min at 37° C. The relative cAMP concentration in each well was then measured using a ? -galactosidase enzyme fragment complementation method purchased in kit form as the Discoverx cAMP II kit from GE Healthcare, UK. […] Sigmoidal curves were fitted to plots of log10 inhibitor concentration vs. percent effect. IC50 estimates were determined as the concentration of test compound giving an effect half way between the bottom and top asymptotes of the sigmoidal dose response curve. Each experiment included an IC50 determination for the literature compound as a standard to track assay consistency and allow fair comparison between values obtained in different experiments. The EC50 of PGE2 is used in combination with the ligand concentration in the assay to determine Ki values for antagonist dose responses using the Cheng-Prusoff equation. Consequently an agonist dose response curve is carried out for each experiment using the same incubation as the antagonist plate.

T1 sequence (P43116 whole entry): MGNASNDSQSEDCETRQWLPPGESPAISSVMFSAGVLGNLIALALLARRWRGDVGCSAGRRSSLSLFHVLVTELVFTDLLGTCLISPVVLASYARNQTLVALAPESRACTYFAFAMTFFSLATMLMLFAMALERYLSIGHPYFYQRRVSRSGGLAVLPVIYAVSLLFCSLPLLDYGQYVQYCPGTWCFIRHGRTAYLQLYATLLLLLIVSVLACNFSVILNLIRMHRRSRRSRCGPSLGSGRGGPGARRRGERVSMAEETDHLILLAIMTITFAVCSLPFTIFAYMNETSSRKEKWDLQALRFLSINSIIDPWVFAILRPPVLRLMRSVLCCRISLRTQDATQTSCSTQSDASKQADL

| Compound | pKi |
| --- | --- |
| COc1ccc(OC(=O)N2CC(COc3ccc4cc(OC)ccc4c3)(C(=O)O)C2)cc1 [Example 62] | 7.91 |
| CCCOc1ccc(OCC2(C(=O)O)CN(C(=O)Nc3cccc(Cl)c3Cl)C2)cc1 [Example 67, 1-{[(2,3-Dichlorophenyl)amino]carbonyl}-3-[(4-propoxyphenoxy)methyl]azetidine-3-carboxylic acid] | 6.96 |
| CSc1ccc(NC(=O)N2CC(COc3cccc(C)c3C)(C(=O)O)C2)cc1 [Example 68, 3-[(2,3-Dimethylphenoxy)methyl]-1-({[4-(methylthio)phenyl]amino}carbonyl)azetidine-3-carboxylic acid] | 6.22 |
| CCCc1ccc(OCC2(C(=O)O)CN(C(=O)Nc3ccccc3CC)C2)cc1 [Example 69] | 6.25 |
| CCCOc1ccc(OCC2(C(=O)O)CN(C(=O)Nc3cc(C)cc(C)c3)C2)cc1 [Example 71] | 6.23 |
| CSc1ccc(NC(=O)N2CC(COc3ccc(C)c4c3CCC4)(C(=O)O)C2)cc1 [Example 72] | 6.13 |

Now from value to molecule:

| pKi | Compound |
| --- | --- |
| 6.57 | COc1ccc2cc(OCC3(C(=O)O)CN(C(=O)Oc4ccc(F)cc4)C3)ccc2c1 [Example 60, 1-[(4-Fluorophenoxy)carbonyl]-3-{[(6-methoxy-2-naphthyl)oxy]methyl}azetidine-3-carboxylic acid] |
| 7.30 | COc1ccc2cc(OCC3(C(=O)O)CN(C(=O)Nc4cccc(F)c4)C3)ccc2c1 [Example 63, 1-{[(3-Fluorophenyl)amino]carbonyl}-3-{[(6-methoxy-2-naphthyl)oxy]methyl}azetidine-3-carboxylic acid] |
| 8.12 | COc1ccc2cc(OCC3(C(=O)O)CN(C(=O)Nc4cccc(Cl)c4)C3)ccc2c1 [Example 64] |
| 7.25 | COc1ccc2cc(OCC3(C(=O)O)CN(C(=O)Nc4ccc(F)cc4)C3)ccc2c1 [Example 65] |
| 6.99 | COc1ccc2cc(OCC3(C(=O)O)CN(C(=O)Nc4ccccc4F)C3)ccc2c1 [Example 66] |
